# Reference: ChEMBL document CHEMBL1139874, “New diphenylacetylenes as probes for positron emission tomographic imaging of amyloid plaques” (J Med Chem, 2007)
# Legend:
# [1] = biological target: Amyloid-beta precursor protein (Homo sapiens, UniProt P05067); assay: Displacement of [125I]IMPY from human beta amyloid plaque in brain homogenates; type: tissue-based
# Kidney [2] = assay: Biodistribution in ICR mouse kidney at 5 to 10 uCi, iv after 30 mins; type: ADME, organism-based; conditions: in vivo, 0.5 h
# Spleen [3] = assay: Biodistribution in ICR mouse spleen at 5 to 10 uCi, iv after 30 mins; type: ADME, organism-based; conditions: in vivo, 0.5 h
# [4] = Partition coefficient, log P at pH 7.4; type: physicochemical; conditions: octanol/water
# Muscle tissue [5] = assay: Biodistribution in ICR mouse muscle at 5 to 10 uCi, iv after 1 hr; type: ADME, organism-based; conditions: in vivo
# Liver [6] = assay: Biodistribution in ICR mouse liver at 5 to 10 uCi, iv after 30 mins; type: ADME, organism-based; conditions: in vivo, 0.5 h
# Spleen [7] = assay: Biodistribution in ICR mouse spleen at 5 to 10 uCi, iv after 2 hrs; type: ADME, organism-based; conditions: in vivo
# Brain [8] = assay: Biodistribution in ICR mouse brain at 5 to 10 uCi, iv after 30 mins; type: ADME, organism-based; conditions: in vivo, 0.5 h
# Muscle tissue [9] = assay: Biodistribution in ICR mouse muscle at 5 to 10 uCi, iv after 2 mins; type: ADME, organism-based; conditions: in vivo
# Blood [10] = assay: Biodistribution in ICR mouse blood at 5 to 10 uCi, iv after 2 mins; type: ADME, organism-based; conditions: in vivo
# Zone of skin [11] = assay: Biodistribution in ICR mouse skin at 5 to 10 uCi, iv after 2 hrs; type: ADME, organism-based; conditions: in vivo
# Kidney [12] = assay: Biodistribution in ICR mouse kidney at 5 to 10 uCi, iv after 2 hrs; type: ADME, organism-based; conditions: in vivo
# Spleen [13] = assay: Biodistribution in ICR mouse spleen at 5 to 10 uCi, iv after 1 hr; type: ADME, organism-based; conditions: in vivo
# Kidney [14] = assay: Biodistribution in ICR mouse kidney at 5 to 10 uCi, iv after 2 mins; type: ADME, organism-based; conditions: in vivo
# Muscle tissue [15] = assay: Biodistribution in ICR mouse muscle at 5 to 10 uCi, iv after 30 mins; type: ADME, organism-based; conditions: in vivo, 0.5 h
# Zone of skin [16] = assay: Biodistribution in ICR mouse skin at 5 to 10 uCi, iv after 30 mins; type: ADME, organism-based; conditions: in vivo, 0.5 h
# Lung [17] = assay: Biodistribution in ICR mouse lung at 5 to 10 uCi, iv after 30 mins; type: ADME, organism-based; conditions: in vivo, 0.5 h
# Liver [18] = assay: Biodistribution in ICR mouse liver at 5 to 10 uCi, iv after 2 hrs; type: ADME, organism-based; conditions: in vivo
# Liver [19] = assay: Biodistribution in ICR mouse liver at 5 to 10 uCi, iv after 2 mins; type: ADME, organism-based; conditions: in vivo
# Heart [20] = assay: Biodistribution in ICR mouse heart at 5 to 10 uCi, iv after 2 hrs; type: ADME, organism-based; conditions: in vivo
# Heart [21] = assay: Biodistribution in ICR mouse heart at 5 to 10 uCi, iv after 2 mins; type: ADME, organism-based; conditions: in vivo
# Blood [22] = assay: Biodistribution in ICR mouse blood at 5 to 10 uCi, iv after 30 mins; type: ADME, organism-based; conditions: in vivo, 0.5 h
# Liver [23] = assay: Biodistribution in ICR mouse liver at 5 to 10 uCi, iv after 1 hr; type: ADME, organism-based; conditions: in vivo
# Lung [24] = assay: Biodistribution in ICR mouse lung at 5 to 10 uCi, iv after 2 hrs; type: ADME, organism-based; conditions: in vivo
# Brain [25] = assay: Biodistribution in ICR mouse brain at 5 to 10 uCi, iv after 2 mins; type: ADME, organism-based; conditions: in vivo
# Muscle tissue [26] = assay: Biodistribution in ICR mouse muscle at 5 to 10 uCi, iv after 2 hrs; type: ADME, organism-based; conditions: in vivo
# Heart [27] = assay: Biodistribution in ICR mouse heart at 5 to 10 uCi, iv after 30 mins; type: ADME, organism-based; conditions: in vivo, 0.5 h
# Zone of skin [28] = assay: Biodistribution in ICR mouse skin at 5 to 10 uCi, iv after 2 mins; type: ADME, organism-based; conditions: in vivo
# Brain [29] = assay: Biodistribution in ICR mouse brain at 5 to 10 uCi, iv after 2 hrs; type: ADME, organism-based; conditions: in vivo
# Kidney [30] = assay: Biodistribution in ICR mouse kidney at 5 to 10 uCi, iv after 1 hr; type: ADME, organism-based; conditions: in vivo
# Brain [31] = assay: Biodistribution in ICR mouse brain at 5 to 10 uCi, iv after 1 hr; type: ADME, organism-based; conditions: in vivo
# Heart [32] = assay: Biodistribution in ICR mouse heart at 5 to 10 uCi, iv after 1 hr; type: ADME, organism-based; conditions: in vivo
# Blood [33] = assay: Biodistribution in ICR mouse blood at 5 to 10 uCi, iv after 2 hrs; type: ADME, organism-based; conditions: in vivo
# Bone [34] = assay: Biodistribution in ICR mouse bone at 5 to 10 uCi, iv after 30 mins; type: ADME, organism-based, Bone element; conditions: in vivo, 0.5 h
# Bone [35] = assay: Biodistribution in ICR mouse bone at 5 to 10 uCi, iv after 2 mins; type: ADME, organism-based, Bone element; conditions: in vivo
# Lung [36] = assay: Biodistribution in ICR mouse lung at 5 to 10 uCi, iv after 2 mins; type: ADME, organism-based; conditions: in vivo
# Zone of skin [37] = assay: Biodistribution in ICR mouse skin at 5 to 10 uCi, iv after 1 hr; type: ADME, organism-based; conditions: in vivo
# Bone [38] = assay: Biodistribution in ICR mouse bone at 5 to 10 uCi, iv after 2 hrs; type: ADME, organism-based, Bone element; conditions: in vivo
# Bone [39] = assay: Biodistribution in ICR mouse bone at 5 to 10 uCi, iv after 1 hr; type: ADME, organism-based, Bone element; conditions: in vivo
# Blood [40] = assay: Biodistribution in ICR mouse blood at 5 to 10 uCi, iv after 1 hr; type: ADME, organism-based; conditions: in vivo
# Spleen [41] = assay: Biodistribution in ICR mouse spleen at 5 to 10 uCi, iv after 2 mins; type: ADME, organism-based; conditions: in vivo
# Lung [42] = assay: Biodistribution in ICR mouse lung at 5 to 10 uCi, iv after 1 hr; type: ADME, organism-based; conditions: in vivo
# Sequence of Amyloid-beta precursor protein (P05067 whole entry): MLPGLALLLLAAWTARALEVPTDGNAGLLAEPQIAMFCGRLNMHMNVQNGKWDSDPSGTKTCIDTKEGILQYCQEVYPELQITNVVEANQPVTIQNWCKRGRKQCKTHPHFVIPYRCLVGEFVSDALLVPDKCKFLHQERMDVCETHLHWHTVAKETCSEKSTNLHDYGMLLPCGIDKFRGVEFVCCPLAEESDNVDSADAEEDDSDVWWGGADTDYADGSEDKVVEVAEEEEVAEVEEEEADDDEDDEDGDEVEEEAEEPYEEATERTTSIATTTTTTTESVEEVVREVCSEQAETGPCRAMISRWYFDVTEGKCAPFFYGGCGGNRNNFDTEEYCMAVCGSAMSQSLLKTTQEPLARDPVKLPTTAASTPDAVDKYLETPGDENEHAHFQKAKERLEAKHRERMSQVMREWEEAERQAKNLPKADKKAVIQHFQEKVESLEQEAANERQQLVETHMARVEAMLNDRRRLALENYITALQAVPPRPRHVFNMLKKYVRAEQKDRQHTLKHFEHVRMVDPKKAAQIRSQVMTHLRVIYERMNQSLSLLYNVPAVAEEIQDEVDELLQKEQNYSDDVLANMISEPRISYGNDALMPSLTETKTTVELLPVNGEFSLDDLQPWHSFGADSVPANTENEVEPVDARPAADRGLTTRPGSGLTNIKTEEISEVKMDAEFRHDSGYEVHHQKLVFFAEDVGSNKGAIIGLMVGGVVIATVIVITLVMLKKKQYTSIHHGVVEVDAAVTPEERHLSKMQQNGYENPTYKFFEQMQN
structure (smiles),measurement,setting,value
COc1ccc(C#Cc2ccc(N)cc2)cc1,Ki,[1],2.9 nM
CN(C)c1ccc(C#Cc2ccc(OCCOCCOCCF)cc2)cc1,Ki,[1],2.9 nM
Nc1ccc(C#Cc2ccc(OCCOCCOCCF)cc2)cc1,Ki,[1],21.5 nM
CN(C)c1ccc(C#Cc2ccc(OCCOCCOCC[18F])cc2)cc1,Drug uptake,Kidney [2],2.68 % ID/g
same,Drug uptake,Spleen [3],1.39 % ID/g
same,logD,[4],3.18
same,Drug uptake,Muscle tissue [5],0.51 % ID/g
same,Drug uptake,Liver [6],13.8 % ID/g
same,Drug uptake,Spleen [7],1.17 % ID/g
same,Drug uptake,Brain [8],1.57 % ID/g
same,Drug uptake,Muscle tissue [9],0.79 % ID/g
same,Drug uptake,Blood [10],5.72 % ID/g
same,Drug uptake,Zone of skin [11],0.68 % ID/g
same,Drug uptake,Kidney [12],2.02 % ID/g
same,Drug uptake,Spleen [13],1.13 % ID/g
same,Drug uptake,Kidney [14],12.4 % ID/g
same,Drug uptake,Muscle tissue [15],0.67 % ID/g
same,Drug uptake,Zone of skin [16],1.41 % ID/g
same,Drug uptake,Lung [17],2.26 % ID/g
same,Drug uptake,Liver [18],6.58 % ID/g
same,Drug uptake,Liver [19],23.2 % ID/g
same,Drug uptake,Heart [20],0.84 % ID/g
same,Drug uptake,Heart [21],9.97 % ID/g
same,Drug uptake,Blood [22],2.97 % ID/g
same,Drug uptake,Liver [23],8.13 % ID/g
same,Drug uptake,Lung [24],1.47 % ID/g
same,Drug uptake,Brain [25],6.78 % ID/g
same,Drug uptake,Muscle tissue [26],0.42 % ID/g
same,Drug uptake,Heart [27],1.49 % ID/g
same,Drug uptake,Zone of skin [28],0.68 % ID/g
same,Drug uptake,Brain [29],0.42 % ID/g
same,Drug uptake,Kidney [30],2.53 % ID/g
same,Drug uptake,Brain [31],0.77 % ID/g
same,Drug uptake,Heart [32],1.04 % ID/g
same,Drug uptake,Blood [33],2.35 % ID/g
same,Drug uptake,Bone [34],0.64 % ID/g
same,Drug uptake,Bone [35],1.51 % ID/g
same,Drug uptake,Lung [36],8.38 % ID/g
same,Drug uptake,Zone of skin [37],1.28 % ID/g
same,Drug uptake,Bone [38],0.7 % ID/g
same,Drug uptake,Bone [39],0.56 % ID/g
same,Drug uptake,Blood [40],2.51 % ID/g
same,Drug uptake,Spleen [41],4.61 % ID/g
same,Drug uptake,Lung [42],1.26 % ID/g
CNc1ccc(C#Cc2ccc(OCCOCCOCCF)cc2)cc1,Ki,[1],1.9 nM
CNc1ccc(C#Cc2ccc(OCCOCCF)cc2)cc1,Ki,[1],1.2 nM
CN(C)c1ccc(C#Cc2ccc(OCCOCCF)cc2)cc1,Ki,[1],5 nM
CNc1ccc(C#Cc2ccc(OCCOCCO)cc2)cc1,Ki,[1],3.1 nM
Nc1ccc(C#Cc2ccc(N)cc2)cc1,Ki,[1],76 nM
CNc1ccc(C#Cc2ccc(OCCOCCOCCO)cc2)cc1,Ki,[1],4.5 nM
Oc1ccc(C#Cc2ccc(OCCOCCOCCF)cc2)cc1,Ki,[1],16.5 nM
